This note sets out measurements from patent publication US8569267B2, “Tetracyclic tetrahydrofuran derivatives containing cyclic amine side chain” (Janssen Pharmaceutica, NV, priority 2005, dated 2013).

The target in experiment [1] is T1, human Dopamine D2L receptor (Homo sapiens, UniProt P14416).
T1 construct: expressed in transfected cells; host or cells: CHO cells
Description: In vitro binding affinity for human D2L receptor ([3H]Spiperone binding). To be noted: human D2L receptor-transfected CHO cell membranes; for IC50: read-out: D2L pIC50 (converted). The procedure, abridged: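 Membranes from CHO cells transfected with the receptor were incubated with [3H]Spiperone (diluted to 2 nmol/L before addition) and compound for 30 min at 37° C. Buffer was Tris-HCl, pH 7.7, with NaCl, CaCl2, MgCl2 and KCl, and non-specific binding was defined with 10^−6 mol/l Butaclamol. Bound radioactivity was collected by filtration, counted by scintillation, and competition curves calculated as percent specific binding.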

Experiment [2] has as its target T2, human cloned 5-HT2A receptor, expressed in L929 cells (Homo sapiens, UniProt P28223).
T2 construct: expressed in transfected cells; host or cells: L929 cells
Description: In vitro binding affinity for 5-HT2A receptor ([125I]R91150 radioligand binding). The method in brief: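 Competition radioligand binding to human cloned 5-HT2A receptor expressed in L929 cells, using [125I]R91150 with test compound at various concentrations. At equilibrium, receptor-bound radioactivity was separated from free and counted. Affinity reflects inhibition of radioligand binding.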

Experiment [3] deals with T3, human cloned 5-HT2C receptor, expressed in CHO cells (Homo sapiens, UniProt P28335).
T3 construct: expressed in transfected cells; host or cells: CHO cells
T3 sequence (P28335 33-458): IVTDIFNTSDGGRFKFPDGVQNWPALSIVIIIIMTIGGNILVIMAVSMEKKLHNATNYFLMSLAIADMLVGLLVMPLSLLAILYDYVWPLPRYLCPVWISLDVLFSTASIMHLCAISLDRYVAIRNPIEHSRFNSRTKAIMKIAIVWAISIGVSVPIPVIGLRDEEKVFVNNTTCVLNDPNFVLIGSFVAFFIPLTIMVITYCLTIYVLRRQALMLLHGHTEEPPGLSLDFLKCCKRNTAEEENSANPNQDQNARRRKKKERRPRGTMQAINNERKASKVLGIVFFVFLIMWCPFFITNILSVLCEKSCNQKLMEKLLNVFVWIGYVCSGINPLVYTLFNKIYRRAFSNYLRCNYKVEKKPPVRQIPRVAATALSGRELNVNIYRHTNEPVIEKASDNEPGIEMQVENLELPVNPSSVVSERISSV
As to the kind of experiment: In vitro binding affinity for 5-HT2C receptor ([3H]mesulergine radioligand binding). The following applies: human cloned 5-HT2C receptor; for IC50: read-out: 5-HT2C pIC50 (converted). The method in brief:
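Competition radioligand binding: varying test-compound concentrations incubated with receptor preparation and radioligand to binding equilibrium. Bound radioactivity separated from free and counted; affinity inferred from concentration-dependent inhibition of radioligand binding.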

Experiment [4] addresses T4, NET (norepinephrine transporter) (Rattus norvegicus, UniProt Q63380).
T4 construct: Cortex from rat brain was collected and homogenised; from tissue; host or cells: rat brain cortex
Description: In vitro determination of NET reuptake inhibition ([3H]Nixosetine binding, rat brain cortex). The following applies: rat brain cortex; for IC50: read-out: NET pIC50 (converted). The procedure, abridged:
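Rat cortex homogenised in Tris 50 mM, NaCl 120 mM, KCl 5 mM, pH 7.4 was used for competition binding against [3H]nisoxetine. Bound radioligand was collected by filtration on GF/B filters and counted by scintillation. Percentage specific binding and competition curves were derived.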

[5] abbreviates: human cloned 5-HT2A receptor in L929 cells, [125I]R91150, read-out: 5-HT2A pIC50 (converted).
[6] abbreviates: human cloned 5-HT2A receptor in L929 cells, [125I]R91150.

The structures appear in SMILES notation. Where two headings read alike, the source gives them in different places.

T2 sequence (P28223 whole entry): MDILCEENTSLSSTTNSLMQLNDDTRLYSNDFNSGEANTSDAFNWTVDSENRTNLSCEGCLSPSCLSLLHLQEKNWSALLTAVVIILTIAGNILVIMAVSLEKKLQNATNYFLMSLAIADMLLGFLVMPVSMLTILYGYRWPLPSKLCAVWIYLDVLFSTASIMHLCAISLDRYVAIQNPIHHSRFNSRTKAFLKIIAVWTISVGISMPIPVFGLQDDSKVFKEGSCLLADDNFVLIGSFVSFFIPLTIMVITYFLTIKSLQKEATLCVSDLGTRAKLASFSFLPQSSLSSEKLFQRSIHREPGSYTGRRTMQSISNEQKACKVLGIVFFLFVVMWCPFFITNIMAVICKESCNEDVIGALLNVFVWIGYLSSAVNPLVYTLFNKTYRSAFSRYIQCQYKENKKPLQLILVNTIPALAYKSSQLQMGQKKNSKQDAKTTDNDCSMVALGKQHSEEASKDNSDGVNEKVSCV
T1 sequence (P14416 whole entry): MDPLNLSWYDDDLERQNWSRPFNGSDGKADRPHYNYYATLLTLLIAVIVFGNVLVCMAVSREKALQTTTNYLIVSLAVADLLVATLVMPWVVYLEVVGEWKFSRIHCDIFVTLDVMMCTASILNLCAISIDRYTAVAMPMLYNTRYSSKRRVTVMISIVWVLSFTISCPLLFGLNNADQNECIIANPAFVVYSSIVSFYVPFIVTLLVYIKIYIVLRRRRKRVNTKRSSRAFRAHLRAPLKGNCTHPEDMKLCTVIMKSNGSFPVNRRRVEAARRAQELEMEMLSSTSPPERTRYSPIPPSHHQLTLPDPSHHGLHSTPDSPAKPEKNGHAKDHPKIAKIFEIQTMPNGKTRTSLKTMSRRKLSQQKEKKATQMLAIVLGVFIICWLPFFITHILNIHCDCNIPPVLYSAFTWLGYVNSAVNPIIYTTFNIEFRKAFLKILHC
T4 sequence (Q63380 1-617): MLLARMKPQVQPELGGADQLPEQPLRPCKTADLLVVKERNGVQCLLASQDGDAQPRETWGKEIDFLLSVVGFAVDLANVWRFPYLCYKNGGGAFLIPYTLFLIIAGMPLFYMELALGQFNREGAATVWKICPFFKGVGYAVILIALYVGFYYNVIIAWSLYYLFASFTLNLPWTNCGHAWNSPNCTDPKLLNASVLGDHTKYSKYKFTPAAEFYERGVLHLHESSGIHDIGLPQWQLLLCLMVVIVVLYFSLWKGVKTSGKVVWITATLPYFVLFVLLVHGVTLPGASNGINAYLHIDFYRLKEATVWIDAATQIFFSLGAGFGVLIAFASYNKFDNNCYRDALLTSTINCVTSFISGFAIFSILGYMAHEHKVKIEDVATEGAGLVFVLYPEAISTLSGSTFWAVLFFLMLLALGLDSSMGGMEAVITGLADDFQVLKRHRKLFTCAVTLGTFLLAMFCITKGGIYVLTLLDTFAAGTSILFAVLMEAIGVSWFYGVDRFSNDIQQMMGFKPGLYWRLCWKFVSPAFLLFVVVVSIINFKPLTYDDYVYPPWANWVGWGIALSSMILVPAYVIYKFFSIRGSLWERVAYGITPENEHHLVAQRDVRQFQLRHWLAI

As to `Fc1ccc2c(c1)C1OC(CN3CCN(CC=Cc4ccccc4)CC3)CC1c1ccccc1C2` (centres unmarked) [Compound 48], the IC50 in experiment [1] was 9.55 nM; in experiment [2] (setting [5]), 30.9 nM; in experiment [3], 32.4 nM; in experiment [4], 2090 nM.
For `O=C(C1CC1)N1CCN(C[C@H]2C[C@@H]3c4ccccc4Cc4ccc(F)cc4[C@@H]3O2)CC1` [Compound 78, [2R-(2α, 3aα, 12bβ)]cyclopropyl-[4-(11-fluoro-3,3a, 8,12b-tetrahydro-2H-1-oxa-dibenzo[e,h]azulen-2-ylmethyl)-piperazin-1-yl]-methanone.oxalate (1:1)], in that order: 36.3 nM, 2.24 nM, 8.91 nM and > 10000 nM.
Regarding `O=C(O)C(=O)O.OC1CCN(CC2CC3c4ccccc4Oc4ccc(Cl)cc4C3O2)CC1` (centres unmarked) [Compound 284], the “D2L pIC50” value in experiment [1] was determined as 7.14. In addition, the “5-HT2A pIC50” value in experiment [2] (setting [6]) came to 7.98. For the same compound, in experiment [3], the “5-HT2C pIC50” value worked out at 7.38. Further, in experiment [4], the “NET pIC50” value is reported as <5.
As to `CC(C)(C)NC(=O)C1CCN(CC2CC3c4ccccc4Cc4ccc(F)cc4C3O2)CC1` (centres unmarked) [Compound 173], the IC50 in experiment [1] was 13.2 nM; in experiment [2] (setting [5]) it was 0.724 nM; in experiment [3], 5.75 nM; in experiment [4] it was 6460 nM.
As for `O=C(C1CCN(CC2CC3c4ccccc4Cc4ccc(F)cc4C3O2)CC1)N1CCN(c2cccc(Cl)c2)CC1` (centres unmarked) [Compound 202], the IC50 is 24 nM in experiment [1], 3.47 nM in experiment [2] (setting [5]), 8.13 nM in experiment [3] and 1620 nM in experiment [4].
Regarding `COc1ccc(CNC(=O)N2CCN(CC3CC4c5ccccc5Cc5ccc(F)cc5C4O3)CC2)c(OC)c1` (centres unmarked) [Compound 96], the IC50 in experiment [1] was 8.91 nM; in experiment [2] (setting [5]) it was 16.2 nM; in experiment [3] it was 6.76 nM; in experiment [4], > 10000 nM.
For the compound `COC(CNC(=O)N1CCN(CC2CC3c4ccccc4Cc4ccc(F)cc4C3O2)CC1)OC` (centres unmarked) [Compound 91], the IC50 in experiment [1] was 37.2 nM; in experiment [2] (setting [5]) it was 1.15 nM; in experiment [3], 14.8 nM; in experiment [4], 4070 nM.
Turning to `Fc1ccc2c(c1)C1OC(CN3CCN(Cc4cccc(Oc5ccccc5)c4)CC3)CC1c1ccccc1C2` (centres unmarked) [Compound 76], the IC50 in experiment [1] is 67.6 nM; in experiment [2] (setting [5]), 66.1 nM; in experiment [3], 102 nM; in experiment [4], 851 nM.
For the compound `C=CC1(O)CCN(CC2CC3c4ccccc4Cc4ccc(F)cc4C3O2)C1` (centres unmarked) [Compound 40], the IC50 was 4.47 nM in experiment [1], 1.23 nM in experiment [2] (setting [5]), 0.275 nM in experiment [3] and > 10000 nM in experiment [4].
With `Fc1ccc2c(c1)C1OC(CN3CCC(NC(=S)NCCN4CCOCC4)CC3)CC1c1ccccc1C2` (centres unmarked) [Compound 253], the IC50 was 24.5 nM in experiment [1], 2.09 nM in experiment [2] (setting [5]), 10.2 nM in experiment [3] and 1510 nM in experiment [4].
Taken in the same sequence, the figures for `OC1(c2ccc(F)cc2)CCN(CC2CC3c4ccccc4Cc4ccc(F)cc4C3O2)C1` (mixture of isomers) [Compound 41] were 4.27 nM, 1.82 nM, 2.29 nM and 7080 nM.
As to `O=C(O)C(=O)O.OC1CCN(CC2CC3c4ccccc4Oc4ccc(F)cc4C3O2)CC1` (racemic) [Compound 282], in experiment [1], the “D2L pIC50” value turned out to be 6.10. In addition, the “5-HT2A pIC50” value in experiment [2] (setting [6]) was 7.00. In addition, the “5-HT2C pIC50” value in experiment [3] is recorded as 6.93. Moreover, in experiment [4], the “NET pIC50” value is given as <5.
Regarding `C=CCN(C)C(=O)C1CCN(CC2CC3c4ccccc4Cc4ccc(F)cc4C3O2)CC1` (centres unmarked) [Compound 177], the IC50 in experiment [1] is 11.7 nM; in experiment [2] (setting [5]) it was < 10 nM; in experiment [3], 4.47 nM; in experiment [4], 9770 nM.
On to `O=C(Cc1ccccc1)OC1CCN(CC2CC3c4ccccc4Cc4ccc(F)cc4C3O2)C1` (mixture of isomers) [Compound 18], for which the IC50 is 10.2 nM in experiment [1], 6.03 nM in experiment [2], 3.63 nM in experiment [3] and 1780 nM in experiment [4].
On to `O=C(Nc1cccc2cnccc12)C1CCN(CC2CC3c4ccccc4Cc4ccc(F)cc4C3O2)CC1` (centres unmarked) [Compound 192], for which the IC50 in experiment [1] is 11.2 nM; in experiment [2] (setting [5]) it was < 10 nM; in experiment [3], 3.8 nM; in experiment [4], 7410 nM.
Consider `O=C(NCCN1CCOCC1)C1CCN(CC2CC3c4ccccc4Cc4ccc(F)cc4C3O2)CC1` (centres unmarked) [Compound 181], for which the IC50 in experiment [1] was 57.5 nM; in experiment [2] (setting [5]), 4.79 nM; in experiment [3], 7.59 nM; in experiment [4], > 10000 nM.
Turning to `Fc1ccc2c(c1)[C@@H]1O[C@@H](CN3CCN(CC4CCCCC4)CC3)C[C@@H]1c1ccccc1C2` [Compound 69], the IC50 in experiment [1] is 7.24 nM; in experiment [2] (setting [5]), 41.7 nM; in experiment [3], 79.4 nM; in experiment [4], > 10000 nM.
`Fc1ccc(OCC2CCN(CC3CC4c5ccccc5Cc5ccc(F)cc5C4O3)C2)cc1` (centres unmarked) [Compound 26]: the IC50 is 3.63 nM in experiment [1], 5.13 nM in experiment [2] (setting [5]), 5.62 nM in experiment [3] and > 10000 nM in experiment [4].
For the compound `O=C(OC1CCN(CC2CC3c4ccccc4Cc4ccc(F)cc4C3O2)C1)C1CC1` (mixture of isomers) [Compound 13], the IC50 is 3.47 nM in experiment [1], 0.912 nM in experiment [2] (setting [5]), 1.12 nM in experiment [3] and 5010 nM in experiment [4].
As to `CC(=O)C1(c2ccccc2)CCN(C(=O)C2CCN(CC3CC4c5ccccc5Cc5ccc(F)cc5C4O3)CC2)CC1` (centres unmarked) [Compound 209], the IC50 in experiment [1] was 31.6 nM; in experiment [2] (setting [5]), 4.68 nM; in experiment [3], 12 nM; in experiment [4], 5250 nM.
`N#CC1=CCN(C[C@H]2C[C@@H]3c4ccccc4Cc4ccc(F)cc4[C@@H]3O2)CC1.O=C(O)C(F)(F)F` [Compound 270]: the “D2L pIC50” value in experiment [1] is on record as 6.67. Also, the “5-HT2A pIC50” value in experiment [2] (setting [6]) worked out at 7.18. The “5-HT2C pIC50” value in experiment [3] is recorded as 7.45. For the same compound, the “NET pIC50” value in experiment [4] is listed as 5.78.
With `O=C(O)C(=O)O.OC1CCN(CC2CC3c4ccccc4Oc4ccc(Cl)cc4C3O2)CC1` (centres unmarked) [Compound 285], the “D2L pIC50” value in experiment [1] is listed as 7.49. In addition, the “5-HT2A pIC50” value in experiment [2] (setting [6]) turned out to be 8.56. The “5-HT2C pIC50” value in experiment [3] came to 7.76. In addition, the “NET pIC50” value in experiment [4] is listed as <5.
With `O=C(NC1CCCCCC1)C1CCN(CC2CC3c4ccccc4Cc4ccc(F)cc4C3O2)CC1` (centres unmarked) [Compound 193], the IC50 in experiment [1] is 15.5 nM; in experiment [2] (setting [5]), 1.41 nM; in experiment [3], 2.63 nM; in experiment [4], 5250 nM.
In the case of `Fc1ccc2c(c1)[C@@H]1O[C@@H](CN3CCc4ccccc4C3)C[C@@H]1c1ccccc1C2.O=C(O)C(F)(F)F` [Compound 275], the “D2L pIC50” value in experiment [1] was 8.03. In addition, the “5-HT2A pIC50” value in experiment [2] (setting [6]) is on record as 8.52. Also, the “5-HT2C pIC50” value in experiment [3] is given as 8.66. The “NET pIC50” value in experiment [4] was found to be 5.49.
As for `OC1CCN(C[C@@H]2C[C@@H]3c4ccccc4Sc4ccc(F)cc4[C@H]3O2)C1` (relative stereo) [Compound 43], the IC50 in experiment [1] was 57.5 nM; in experiment [2] (setting [5]), < 10 nM; in experiment [3], 1.29 nM; in experiment [4] it was 1700 nM.
For `O=C(NC1CCCCC1)C1CCN(CC2CC3c4ccccc4Cc4ccc(F)cc4C3O2)CC1` (centres unmarked) [Compound 188], in that order: 9.77 nM, < 10 nM, 2.75 nM and > 10000 nM.
For `COc1ccc(C)c(NC(=O)C2CCN(CC3CC4c5ccccc5Cc5ccc(F)cc5C4O3)CC2)c1` (centres unmarked) [Compound 191], in that order: 11.7 nM, < 10 nM, 3.47 nM and 9120 nM.
`O=C(NCCCO)C1CCN(CC2CC3c4ccccc4Cc4ccc(F)cc4C3O2)CC1` (centres unmarked) [Compound 175]: the IC50 in experiment [1] was 18.2 nM; in experiment [2] (setting [5]) it was 0.759 nM; in experiment [3] it was 1.74 nM; in experiment [4], > 10000 nM.
In the case of `CN1c2ccccc2C2CC(CN3CCC(O)C3)OC2c2ccccc21` (racemic) [Compound 263], the IC50 was 550 nM in experiment [1], 251 nM in experiment [2] (setting [5]), 13.2 nM in experiment [3] and 2880 nM in experiment [4].
